The text below walks through data of patent US20250081967A1, “PESTICIDALLY ACTIVE HETEROCYCLIC DERIVATIVES WITH SULFOXIMINE CONTAINING SUBSTITUENTS” (SYNGENTA CROP PROTECTION AG, priority 2021, published 2025).

As a reminder, the mortality is the percentage killed. A high value points to a strong lethal effect.

Common to all, as to format: in vivo
Data set [1] relates to Frankliniella occidentalis. The data set can be described thus: Activity against Frankliniella occidentalis (western flower thrips), sunflower leaf discs. The following applies: foliar, 168 h, application rate 200 ppm, mixed ages, 7 days after infestation. Here is the method:
Example B8: Activity Against Frankliniella occidentalis (Western Flower Thrips)
Sunflower leaf discs were placed on agar in 24-well microtiter plates and sprayed with aqueous test solutions prepared from […] stock solutions. After drying the leaf discs were infested with a Frankliniella population of mixed ages. The samples were assessed for mortality 7 days after infestation.

The subject of data set [2] is Plutella xylostella. Description: Activity against Plutella xylostella (diamond back moth), artificial diet, eggs. The following applies: 192 h, application rate 200 ppm, 8 days after infestation, read-out: effect in at least one of the two categories (mortality or growth inhibition). In short, it runs like this: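 Artificial diet in wells treated with aqueous dilutions of 10′000 ppm DMSO stocks, dried, then infested with Plutella eggs. Mortality and growth inhibition scored against untreated samples 8 days after infestation.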

For another data set, the system named is Diabrotica balteata. The data set can be described thus: Activity against Diabrotica balteata (corn root worm), maize sprouts. The note with it: 96 h, application rate 200 ppm, L2 larvae, 4 days after infestation, read-out: effect in at least one of the two categories (mortality or growth inhibition). Here is the method: Example B3: Activity Against Diabrotica Balteata (Corn Root Worm)
Maize sprouts placed onto an agar layer in 24-well microtiter plates were treated with aqueous test solutions prepared from 10′000 ppm DMSO stock solutions by spraying. After drying, the plates were infested with L2 larvae (6 to 10 per well). The samples were assessed for mortality and growth inhibition in comparison to untreated samples 4 days after infestation.

Data set [3] relates to Myzus persicae. Description: Activity against Myzus persicae (green peach aphid), feeding/contact activity, sunflower leaf discs. The note with it: Myzus persicae, foliar, 144 h, application rate 200 ppm; feeding/contact; 6 days after infestation. Here is the method: Example B4: Activity Against Myzus persicae (Green Peach Aphid) Feeding/Contact Activity
Sunflower leaf discs were placed on agar in a 24-well microtiter plate and sprayed with aqueous test solutions prepared from 10′000 ppm DMSO stock solutions. After drying, the leaf discs were infested with an aphid population of mixed ages. The samples were assessed for mortality 6 days after infestation.

For data set [4], the system named is Myzus persicae. The data set can be described thus: Activity against Myzus persicae (green peach aphid), systemic activity, pea seedlings. The note with it: Myzus persicae. As to the method:
Example B5: Activity Against Myzus persicae (Green Peach Aphid) Systemic Activity
Roots of pea seedlings infested with an aphid population of mixed ages were placed directly in the aqueous test solutions prepared from 10′000 DMSO stock solutions. The samples were assessed for mortality 6 days after placing seedlings in test solutions.

A further data set relates to Tetranychus urticae. Description: Activity against Tetranychus urticae (two-spotted spider mite), bean leaf discs. The note with it: foliar, 192 h, application rate 200 ppm, mixed population (mobile stages), 8 days after infestation. Here is the method:
Example B10: Activity Against Tetranychus urticae (Two-Spotted Spider Mite)
Bean leaf discs on agar in 24-well microtiter plates were sprayed with aqueous test solutions prepared from 10′000 ppm DMSO stock solutions. After drying the leaf discs were infested with a mite population of mixed ages. The samples were assessed for mortality on mixed population (mobile stages) 8 days after infestation.

In the next data set the test system is Spodoptera littoralis. Description: Activity against Spodoptera littoralis (Egyptian cotton leaf worm), cotton leaf discs. The following applies: foliar, 72 h, application rate 200 ppm, L1 larvae, 3 days after infestation, read-out: control (mortality, anti-feeding effect or growth inhibition). In short, it runs like this:
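Cotton leaf discs on agar sprayed with aqueous test solutions made from 10′000 ppm DMSO stocks, dried, then infested with five L1 larvae. Mortality, anti-feeding and growth inhibition scored versus untreated samples 3 days after infestation; control given when any category exceeds untreated.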

Another data set concerns Bemisia tabaci. Description: Activity against Bemisia tabaci (cotton white fly), cotton leaf discs. The note with it: for mortality at 200 ppm: foliar, 144 h, application rate 200 ppm, adult white flies, 6 days after incubation. As to the method: Example B6: Activity Against Bemisia tabaci (Cotton White Fly)
Cotton leaf discs were placed on agar in 24-well microtiter plates and sprayed with aqueous test solutions prepared from 10′000 ppm DMSO stock solutions. After drying the leaf discs were infested with adult white flies. The samples were checked for mortality 6 days after incubation.

The next data set has as its system Euschistus heros. Description: Activity against Euschistus heros (neotropical brown stink bug), soybean leaf. The following applies: 120 h, application rate 200 ppm, N-2 nymphs, 5 days after infestation, read-out: effect in at least one of the two categories (mortality or growth inhibition). As to the method:
Example B7: Activity Against Euschistus heros (Neotropical Brown Stink Bug)
Soybean leaf on agar in 24-well microtiter plates were sprayed with aqueous test solutions prepared from 10′000 ppm DMSO stock solutions. After drying the leaf were infested with N-2 nymphs. The samples were assessed for mortality and growth inhibition in comparison to untreated samples 5 days after infestation.

Data set [5] deals with Plutella xylostella. Description: Activity against Plutella xylostella (diamond back moth), artificial diet, L2 larvae. The following applies: 120 h, application rate 200 ppm, 5 days after infestation, read-out: effect in at least one of the two categories (mortality or growth inhibition). Here is the method: Example B2: Activity Against Plutella xylostella (Diamond Back Moth)
24-well microtiter plates with artificial diet were treated with aqueous test solutions prepared from 10′000 ppm DMSO stock solutions by pipetting. After drying, the plates were infested with L2 larvae (10 to 15 per well). The samples were assessed for mortality and growth inhibition in comparison to untreated samples 5 days after infestation.

The mark [6] stands for this setting: 144 h, test rate 24 ppm, systemic, 6 days after placing seedlings in test solutions.

Where only a bound is given, the exact number is not on record here.

Molecule `CCS(=N)(=O)c1cc(OC(C)(C)C#N)cnc1-c1nc2cc(C(F)(F)F)n(C3CC3)c(=O)c2n1C` (single isomer, unassigned) [Compound P1-B, 2-[[6-[5-cyclopropyl-3-methyl-4-oxo-6-(trifluoromethyl)imidazo[4,5-c]pyridin-2-yl]-5-(ethylsulfonimidoyl)-3-pyridyl]oxy]-2-methyl-propanenitrile] yielded a mortality at 200 ppm in data set [1] of at least 80%. For the same molecule, the percent effect (mortality or growth inhibition) at 200 ppm with Plutella xylostella [2] is at least 80%.
In the case of `CCS(=N)(=O)c1cc(OC(C)(C)C#N)cnc1-c1cn2cnc(C(F)(F)F)cc2n1` (single isomer, unassigned) [Compound P11-A, 2-[[5-(ethylsulfonimidoyl)-6-[7-(trifluoromethyl)imidazo[1,2-c]pyrimidin-2-yl]-3-pyridyl]oxy]-2-methyl-propanenitrile], the percent effect (mortality or growth inhibition) at 200 ppm with Diabrotica balteata and with Plutella xylostella [2] was at least 80% each time. In addition, the mortality at 200 ppm (in the data set with Myzus persicae [3]; in [1]) was at least 80% in each case. Besides, the mortality at 24 ppm was at least 80% in the data set on Myzus persicae [4] (setting [6]) and 100% in the data set on Myzus persicae [4] (Myzus persicae (systemic), concentration 24 ppm).
For `CCn1c(C(F)(F)F)cc2nc(-c3ncc(OC(C)(C)C#N)cc3S(=N)(=O)CC)n(C)c2c1=O` (single isomer, unassigned) [Compound P19-A, 2-[[6-[5-ethyl-3-methyl-4-oxo-6-(trifluoromethyl)imidazo[4,5-c]pyridin-2-yl]-5-(ethylsulfonimidoyl)-3-pyridyl]oxy]-2-methyl-propanenitrile], the percent effect (mortality or growth inhibition) at 200 ppm in the data set with Diabrotica balteata, in the data set on Plutella xylostella [2] and in the data set on Euschistus heros was at least 80% each time. For the same molecule, the mortality at 200 ppm in the data set with Tetranychus urticae, in the data set with Bemisia tabaci and in the data set on Myzus persicae [3] was at least 80% throughout. Also, the percent control (mortality, anti-feedant effect or growth inhibition) at 200 ppm with Spodoptera littoralis is at least 80%. Further, the mortality at 24 ppm in the data set on Myzus persicae [4] (setting [6]) was at least 80%.
In data set [1], `CCn1c(C(F)(F)F)cc2nc(-c3ncc(OC(C)(C)C#N)cc3S(=N)(=O)CC)n(C)c2c1=O` (single isomer, unassigned) [Compound P19-B, 2-[[6-[5-ethyl-3-methyl-4-oxo-6-(trifluoromethyl)imidazo[4,5-c]pyridin-2-yl]-5-(ethylsulfonimidoyl)-3-pyridyl]oxy]-2-methyl-propanenitrile] registered a mortality at 200 ppm of at least 80%.
Turning to `CCS(=N)(=O)c1cc(OC(C)(C)C#N)cnc1-c1cn2cnc(SC(F)(F)F)cc2n1` (single isomer, unassigned) [Compound P7-B, 2-[[5-(ethylsulfonimidoyl)-6-[7-(trifluoromethylsulfanyl)imidazo[1,2-c]pyrimidin-2-yl]-3-pyridyl]oxy]-2-methyl-propanenitrile], the “Mortality (%)” value in the data set on Bemisia tabaci (concentration 50 ppm) is given as 80%. The molecule also yielded a mortality at 200 ppm in data set [1] of at least 80%. The percent effect (mortality or growth inhibition) at 200 ppm in the data set on Plutella xylostella [2] was at least 80%.
On to `CCS(=N)(=O)c1cc(OC(C)(C)C#N)cnc1-c1cn2cnc(SC(F)(F)F)cc2n1` (racemic) [Compound P7, 2-[[5-(ethylsulfonimidoyl)-6-[7-(trifluoromethylsulfanyl)imidazo[1,2-c]pyrimidin-2-yl]-3-pyridyl]oxy]-2-methyl-propanenitrile], for which the percent effect (mortality or growth inhibition) at 200 ppm in the data set with Diabrotica balteata, in the data set with Plutella xylostella [2] and in the data set with Euschistus heros was at least 80% throughout. The mortality at 200 ppm (in the data set on Tetranychus urticae; with Bemisia tabaci; with Myzus persicae [3]; in data set [1]) was at least 80% in each case.
With `CCS(=N)(=O)c1cc(OC(C)(C)C#N)cnc1-c1nc2cc(C(F)(F)F)ncc2n1C` (racemic) [Compound P13, 2-[[5-(ethylsulfonimidoyl)-6-[3-methyl-6-(trifluoromethyl)imidazo[4,5-c]pyridin-2-yl]-3-pyridyl]oxy]-2-methyl-propanenitrile], the percent effect (mortality or growth inhibition) at 200 ppm in the data set with Diabrotica balteata, in the data set with Plutella xylostella [5] and with Euschistus heros was at least 80% each time. In addition, the mortality at 200 ppm with Tetranychus urticae, in the data set with Bemisia tabaci and with Myzus persicae [3] was at least 80% each time. Besides, the percent control (mortality, anti-feedant effect or growth inhibition) at 200 ppm with Spodoptera littoralis was at least 80%. This molecule registered a mortality at 24 ppm with Myzus persicae [4] (setting [6]) of at least 80%.
Turning to `CCS(=N)(=O)c1cc(OC(C)(C)C#N)cnc1-c1nc2cc(C(F)(F)F)n(C3CC3)c(=O)c2n1C` (racemic) [Compound P1, 2-[[6-[5-cyclopropyl-3-methyl-4-oxo-6-(trifluoromethyl)imidazo[4,5-c]pyridin-2-yl]-5-(ethylsulfonimidoyl)-3-pyridyl]oxy]-2-methyl-propanenitrile], the percent effect (mortality or growth inhibition) at 200 ppm in the data set with Diabrotica balteata, in the data set with Plutella xylostella [5] and in the data set with Euschistus heros was at least 80% in each case. In the data set with Spodoptera littoralis, the percent control (mortality, anti-feedant effect or growth inhibition) at 200 ppm is at least 80%. Moreover, the mortality at 200 ppm (in the data set on Bemisia tabaci; in the data set with Myzus persicae [3]; in data set [1]) was at least 80% throughout. Further, in the data set with Myzus persicae [4] (setting [6]), the mortality at 24 ppm is at least 80%.
